{"source": "patent US20020103131A1", "about": "“Prevention of diabetes by administration of GnRH antagonists” (priority 2001, published 2002)", "assay_type_in_all_cases": "in vivo", "key": {"gonadectomized NOD mice": {"tested_on": "gonadectomized NOD mice", "test": "Serum total immunoglobulin G concentrations (single radial immunodiffusion) in gonadectomized NOD mice", "conditions": "100 μg subcutaneously six times weekly, 8 weeks of treatment, compared to vehicle / sham operated, FIG. 1", "description": "(§1) The well-characterized NOD mice were used throughout the study. Male and female mice were purchased from the Jackson Laboratory (Bar Harbor, Me.). These mice are art-recognized animal models used in diabetes research. (Makino et al., (1980) Breeding of a Non-obese Diabetic Strain of Mice. Exp Anim, 29, 1-13; Miyazaki, A. T., et al, (1985) Predominance of T Lymphocytes in Pancreatic Islets and Spleen in Prediabetic Non-obese Diabetic (Nod) Mice: a Longitudinal Study. Clin Exp immunol, 60, 622-630)\n(§2) Both intact and gonadectomized mice (GDX) were used. […] To compare the effects of GnRH agonists and antagonists, gonadectomized animals were randomized at 14 to 18 days of age and begun immediately in one of the following main treatment groups: GnRH agonist; Antide; vehicle. One group of gonadectomized males was treated with Nal-Glu, as an additional control. […]\n(§3) Total immunoglobulin G concentrations were measured by single radial immunodiffusion assay using immunodiffusion plates containing monospecific antiserum for IgG (ICN Biomedicals, Inc., Costa Mesa, Calif.). […] Glycosuria was scored by comparison to reference standards on a scale of 0 to 4 as follows: negative=0; 30 mg/dL=1; 100 mg/dL=2; 300 mg/dL=3;>1000 mg/dL=4.\n(§4) Serum immunoglobulin measurements were compared by two-tailed Student's paired t-tests. Percentages of mice remaining diabetes-free was assessed by Mantel-Haenszel methodology. […]"}, "[1]": {"tested_on": "gonadectomized male NOD mice", "test": "Incidence and onset of diabetes in gonadectomized male NOD mice", "conditions": "100 μg subcutaneously six times weekly", "description": "as §1, §2, §3, §4"}, "NOD mice": {"tested_on": "NOD mice", "test": "Serum prolactin by radioimmunoassay in treated NOD mice", "conditions": "NOD mice under agonist or antagonist treatment", "description": "Both intact and gonadectomized mice (GDX) were used. […] To compare the effects of GnRH agonists and antagonists, gonadectomized animals were randomized at 14 to 18 days of age and begun immediately in one of the following main treatment groups: GnRH agonist; Antide; vehicle. One group of gonadectomized males was treated with Nal-Glu, as an additional control.\nGnRH (native decapeptide) was purchased from Bachem (Bubendorf, Switzerland). GnRH antagonist Antide (Acetyl-β-[2-Naphthyl]-D-Ala-D-p-Chloro-Phe-β-[3-Pyridyl]-D-Ala-Ser-Nε-]-Lys-Nε-[Nicotinoyl]-D-Lys-Leu-Nε-[Isopropyl]-Lys-Pro-D-Ala-NH2) was supplied by Contraceptive Development Branch (NICHHD) of the National Institutes of Health and Ares-Serono (Randolph, Mass.). A second GnRH antagonist, Nal-Glu (acetyl-D2Nal1, D4ClPhe2, D3Pal3, Arg5, Dglu6(AA), DAla10) was supplied by NICHHD and was used on a subset of mice. All references to GnRH agonist refer to the native decapeptide. Animals were injected subcutaneously in the nape of the neck six times weekly, in the a.m., with 100 μg of GnRH or GnRH antagonist in 100 μl of vehicle consisting of 50% propylene glycol and 50% double distilled water. […]\nSerum testosterone concentrations were measured by RIA using a commercial kit (Coat-A-Count, Diagnostic Products Corporation, Los Angeles, Calif.). Serum LH and prolactin were measured by radioimmunoassay (RIA) using previously described methods. […]"}}, "note": "“Also recorded” adds a separate entry of the source.", "data": [{"substance": "GnRH agonist: GnRH (native decapeptide) purchased from Bachem; all references to GnRH agonist refer to the native decapeptide (QHWSYGLRPG; Gonadoliberin-1; UniProt P01148 24-33, looked up)", "values": [{"measurement": "Serum IgG concentrations", "setting": "gonadectomized NOD mice", "value": "further increased IgG levels compared to vehicle; also recorded: reciprocal effects"}, {"measurement": "Timing of onset of diabetes", "setting": "[1]; gonadectomized NOD mice", "value": "accelerated the timing of onset of diabetes; also recorded: reciprocal effects"}, {"measurement": "Incidence of diabetes", "setting": "[1]; gonadectomized male NOD mice, compared to vehicle, FIG. 2", "value": "significantly increased the incidence"}, {"measurement": "Serum prolactin levels", "setting": "NOD mice", "value": "neither agonist nor antagonist treatment altered serum prolactin levels"}]}]}
